# Data reported in patent US8735345B2, “Therapeutic composition” (Hoffmann la Roche Inc., priority 2009, dated 2014).
# Tests used:
# [1] = test system: HCV replication; settings: cited from earlier work
# [2] = test system: genotype 1 HCV; assay: HCV RNA viral load determination (COBAS AmpliPrep/COBAS TaqMan HCV Test) in a randomized, double-blind, placebo controlled, dose ranging study; format: in vivo, human; settings: monotherapy 750 mg, bid; after 7 days of treatment
# Experimental: A randomized, double-blind, placebo controlled, dose ranging study of Compound 1a and Compound 2 in adult patients with chronic hepatitis C genotype 1 was conducted. Approximately 54 treatment naïve males and females between 18 and 65 years of age (inclusive) with genotype 1 HCV infection who had not previously been treated with an interferon or investigational HCV therapeutic agent were enrolled. Approximately an additional 20 treatment patients who had failed treatment with the current standard of care (null, partial responders and relapsers) were enrolled. […] Subjects with liver cirrhosis or incomplete/transition to cirrhosis, or other forms of liver disease, anemia, HIV or HBV infection, hepatocellular carcinoma, cardiac disease or renal disease were excluded from this particular protocol, as well as pregnant or lactating women, women of childbearing potential, and male partners of women who are pregnant or lactating.
# Seven groups, Groups I, II, III, IV, V, VI and VII, of subjects were studied. Blood samples were collected at time points to determine pharmacokinetics parameters, including Tmax, Cmax, Kel, T1/2, AUC, CL/F, Vd/F and accumulation ratio.
# The specifics of Groups I, II, III, IV, V, VI and VII are shown in Table 1 below and pictorially in FIGS. 2 and 3. Group I included two arms with 8 subjects in Arm 1 and 8 subjects in Arm 2. […]
Compound,inhibition of HCV replication [1],mean log change from baseline in HCV RNA viral load [2] [log IU/mL]
"C[C@@]1(F)[C@H](O)[C@@H](CO)O[C@H]1n1ccc(N)nc1=O [Compound 1, β-D-2′-deoxy-2′-fluoro-2′-C-methylcytidine]",effective in inhibiting HCV replication,
"CC(C)(C)OC(=O)N[C@H]1CCCCCC=C[C@@H]2C[C@@]2(C(=O)NS(=O)(=O)C2CC2)NC(=O)[C@@H]2C[C@@H](OC(=O)N3Cc4cccc(F)c4C3)CN2C1=O [Compound 2, (1S,4R,6S,14S,18R)-4-Fluoro-1,3-dihydro-isoindole-2-carboxylic acid 14-tert-butoxycarbonylamino-4-cyclopropanesulfonylaminocarbonyl-2,15-dioxo-3,16-diaza-tricyclo[14.3.0.04,6]nonadec-7-en-18-yl ester]",effective in inhibiting HCV replication,
diisobutyl ester prodrug of β-D-2′-deoxy-2′-fluoro-2′-C-methylcytidine [Compound 1a],,−1.3
